pIC50: −log10 of the molar value. Structures can show the parent of a compound that is named as a salt.
Each molecule was assayed against T1, His-tagged recombinant human TrkA (Homo sapiens, UniProt P04629) (assay: TrkA LanthaScreen Eu Kinase Binding Assay). Settings: averaged IC50; TR-FRET binding assay, 60 min, 22° C.; read-out: TrkA Enzyme IC50.
T1 construct: 6HIS tagged cytoplasmic domain from Invitrogen, Catalog No. PV3144; purchased Invitrogen PV3144
Procedure: TrkA binding activity was determined in a TrkA LanthaScreen™ Eu Kinase Binding Assay. 5 nM His-tagged recombinant human TrkA (6HIS tagged cytoplasmic domain from Invitrogen, Catalog No. PV3144) was incubated with 4 nM Alexa-Fluor® Tracer 236 (Invitrogen Cat. No. PV5592), 2 nM biotinylated anti-His (Invitrogen Cat. No. PV6090), and 2 nM europium-labeled Streptavidin (Invitrogen Cat. No. PV5899), in buffer (25 mM MOPS, pH 7.5, 5 mM MgCl2, 0.005% Triton X-100). Three fold serial dilutions of compounds of the invention in DMSO were added to a final percentage of 2% DMSO. After 60-minute incubation at 22° C., the reaction was measured using the EnVision multimode plate reader (PerkinElmer) via TR-FRET dual wavelength detection at […]. The percent of control was calculated using a ratiometric emission factor. The IC50 values were determined by fitting a four parameter model to the percent of control data.
Table A provides averaged IC50 values for compounds of the invention when tested in the assay of Example A, where A represents an averaged IC50 value <100 nM; B represents an averaged IC50 value from 100 to 1,000 nM; and C represents an averaged IC50 value from 1,000 to 10,000 nM.

T1 sequence (P04629 440-796 limits assumed): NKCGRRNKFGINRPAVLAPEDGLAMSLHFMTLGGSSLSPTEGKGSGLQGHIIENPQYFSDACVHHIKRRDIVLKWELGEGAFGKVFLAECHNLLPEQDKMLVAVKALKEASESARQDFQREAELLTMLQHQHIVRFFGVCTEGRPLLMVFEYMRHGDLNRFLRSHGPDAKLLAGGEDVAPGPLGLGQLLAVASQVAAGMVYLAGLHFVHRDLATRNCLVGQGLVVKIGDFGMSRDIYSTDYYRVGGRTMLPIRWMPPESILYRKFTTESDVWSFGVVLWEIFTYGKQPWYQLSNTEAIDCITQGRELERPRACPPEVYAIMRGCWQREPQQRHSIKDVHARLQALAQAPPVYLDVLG

pIC50	Structure (SMILES)
6.00 to 7.00	Cc1c(-c2cnn(C)c2)nn(-c2ccccc2)c1NC(=O)Nc1cccc2ccccc12 [Example 10, 1-(1′,4-dimethyl-1-phenyl-1H,1′H-[3,4′-bipyrazol]-5-yl)-3-(naphthalen-1-yl)urea]
> 7.00	O=C(Nc1ccc(Cl)c2ccccc12)Nc1c(Cl)c(OCC2CCNCC2)nn1-c1ccccc1 [Example 11, 1-(4-chloro-1-phenyl-3-(piperidin-4-ylmethoxy)-1H-pyrazol-5-yl)-3-(4-chloronaphthalen-1-yl)urea hydrochloride]
> 7.00	COCc1ccc2ccc(Cl)c(NC(=O)Nc3c(C)c(-c4cnn(C)c4)nn3-c3ccccc3)c2c1 [Example 18, 1-(2-chloro-7-(methoxymethyl)naphthalen-1-yl)-3-(1′,4-dimethyl-1-phenyl-1H,1′H-[3,4′-bipyrazol]-5-yl)urea]
> 7.00	Cc1c(C2CCN(C)CC2)nn(-c2ccccc2)c1NC(=O)Nc1ccc(Cl)c2ccccc12 [Example 14, 1-(4-chloronaphthalen-1-yl)-3-(4-methyl-3-(1-methylpiperidin-4-yl)-1-phenyl-1H-pyrazol-5-yl)urea hydrochloride]
> 7.00	CNC(=O)c1nn(-c2ccccc2)c(NC(=O)Nc2ccc(Cl)c3ccccc23)c1C [Example 8, 5-(3-(4-chloronaphthalen-1-yl)ureido)-N,4-dimethyl-1-phenyl-1H-pyrazole-3-carboxamide]
> 7.00	COCc1ccc2c(Cl)ccc(NC(=O)Nc3c(C)c(-c4cnn(C)c4)nn3-c3ccccc3)c2c1 [Example 19, 1-(4-chloro-7-(methoxymethyl)naphthalen-1-yl)-3-(1′,4-dimethyl-1-phenyl-1H,1′H-[3,4′-bipyrazol]-5-yl)urea]
> 7.00	Cc1c(-c2cnn(C)c2)nn(-c2ccccc2)c1NC(=O)Nc1ccc(Cl)c2ccccc12 [Example 9, 1-(4-chloronaphthalen-1-yl)-3-(1′,4-dimethyl-1-phenyl-1H,1′H-[3,4′-bipyrazol]-5-yl)urea]
> 7.00	COC[C@H](O)COc1nn(-c2ccccc2)c(NC(=O)Nc2ccc(Cl)c3ccccc23)c1C [Example 15, (S)-1-(4-chloronaphthalen-1-yl)-3-(3-(2-hydroxy-3-methoxypropoxy)-4-methyl-1-phenyl-1H-pyrazol-5-yl)urea]
> 7.00	Cc1c(C2CCN(CC(F)(F)F)CC2)nn(-c2ccccc2)c1NC(=O)Nc1ccc(Cl)c2ccccc12 [Example 13, 1-(4-chloronaphthalen-1-yl)-3-(4-methyl-1-phenyl-3-(1-(2,2,2-trifluoroethyl)piperidin-4-yl)-1H-pyrazol-5-yl)urea]
> 7.00	COCc1ccc2cccc(NC(=O)Nc3c(C)c(-c4ccc(=O)n(C)c4)nn3-c3ccccc3)c2c1 [Example 17, 1-(7-(methoxymethyl)naphthalen-1-yl)-3-(4-methyl-3-(1-methyl-6-oxo-1,6-dihydropyridin-3-yl)-1-phenyl-1H-pyrazol-5-yl)urea]
6.00 to 7.00	Cc1c(-c2ccc(=O)n(C)c2)nn(-c2ccccc2)c1NC(=O)Nc1cncc2ccccc12 [Example 25, 1-(isoquinolin-4-yl)-3-(4-methyl-3-(1-methyl-6-oxo-1,6-dihydropyridin-3-yl)-1-phenyl-1H-pyrazol-5-yl)urea]
5.00 to 6.00	Cc1c(-c2cnn(C)c2)nn(-c2ccccc2)c1NC(=O)Nc1ncc(Cl)c2ccccc12 [Example 23, 1-(4-chloroisoquinolin-1-yl)-3-(1′,4-dimethyl-1-phenyl-1H,1′H-[3,4′-bipyrazol]-5-yl)urea]
5.00 to 6.00	Cc1c(-c2cnn(C)c2)nn(-c2ccccc2)c1NC(=O)Nc1cncc2ccccc12 [Example 24, 1-(1′,4-dimethyl-1-phenyl-1H,1′H-3,4′-bipyrazol-5-yl)-3-(isoquinolin-4-yl)urea]
> 7.00	COCc1cc2c(NC(=O)Nc3c(C)c(-c4cnn(C)c4)nn3-c3ccccc3)cccc2cn1 [Example 3, 1-(1′,4-dimethyl-1-phenyl-1H,1′H-[3,4′-bipyrazol]-5-yl)-3-(3-(methoxymethyl)isoquinolin-5-yl)urea trifluoroacetate]
> 7.00	Cc1c(-c2ccc(=O)n(C)c2)nn(-c2ccccc2)c1NC(=O)Nc1ccc(Cl)c2ccccc12 [Example 1, 1-(4-chloronaphthalen-1-yl)-3-(4-methyl-3-(1-methyl-6-oxo-1,6-dihydropyridin-3-yl)-1-phenyl-1H-pyrazol-5-yl)urea]
> 7.00	COCc1ccc2c(Cl)ccc(NC(=O)Nc3c(C)c(C4CCN(C)CC4)nn3-c3ccccc3)c2c1 [Example 20, 1-(4-chloro-7-(methoxymethyl)naphthalen-1-yl)-3-(4-methyl-3-(1-methylpiperidin-4-yl)-1-phenyl-1H-pyrazol-5-yl)urea hydrochloride]
> 7.00	COCc1cc2c(NC(=O)Nc3c(C)c(-c4cnn(C)c4)nn3-c3ccccc3)ccc(Cl)c2cn1 [Example 6, 1-(8-chloro-3-(methoxymethyl)isoquinolin-5-yl)-3-(1′,4-dimethyl-1-phenyl-1H,1′H-[3,4′-bipyrazol]-5-yl)urea]
> 7.00	O=C(Nc1ccc(Cl)c2ccccc12)Nc1c2c(nn1-c1ccccc1)CCC2 [Example 2, 1-(4-chloronaphthalen-1-yl)-3-(2-phenyl-2,4,5,6-tetrahydrocyclopenta[c]pyrazol-3-yl)urea]
5.00 to 6.00	Cc1c(C2CCNCC2)nn(-c2ccccc2)c1NC(=O)Nc1ncc(Cl)c2ccccc12 [Example 22, 1-(4-chloroisoquinolin-1-yl)-3-(4-methyl-1-phenyl-3-(piperidin-4-yl)-1H-pyrazol-5-yl)urea hydrochloride]
> 7.00	COCc1cc2c(NC(=O)Nc3c(C)c(-c4cnn(C)c4)nn3-c3ccccc3)ccc(Br)c2cn1 [Example 5, 1-(8-bromo-3-(methoxymethyl)isoquinolin-5-yl)-3-(1′,4-dimethyl-1-phenyl-1H,1′H-[3,4′-bipyrazol]-5-yl)urea]
> 7.00	Cc1c(C(N)=O)nn(-c2ccccc2)c1NC(=O)Nc1ccc(Cl)c2ccccc12 [Example 7, 5-(3-(4-chloronaphthalen-1-yl)ureido)-4-methyl-1-phenyl-1H-pyrazole-3-carboxamide]
> 7.00	COCc1ccc2c(Cl)ccc(NC(=O)Nc3c(C)c(-c4ccc(=O)n(C)c4)nn3-c3ccccc3)c2c1 [Example 21, 1-(4-chloro-7-(methoxymethyl)naphthalen-1-yl)-3-(4-methyl-3-(1-methyl-6-oxo-1,6-dihydropyridin-3-yl)-1-phenyl-1H-pyrazol-5-yl)urea]
6.00 to 7.00	COCc1cc2c(NC(=O)Nc3c(C)c(-c4cnn(C)c4)nn3-c3ccccc3)c(Cl)ccc2cn1 [Example 4, 1-(6-chloro-3-(methoxymethyl)isoquinolin-5-yl)-3-(1′,4-dimethyl-1-phenyl-1H,1′H-[3,4′-bipyrazol]-5-yl)urea]
> 7.00	Cc1c(C2CCNCC2)nn(-c2ccccc2)c1NC(=O)Nc1ccc(Cl)c2ccccc12 [Example 12, 1-(4-chloronaphthalen-1-yl)-3-(4-methyl-1-phenyl-3-(piperidin-4-yl)-1H-pyrazol-5-yl)urea hydrochloride]

— patent publication US9546156B2, “N-bicyclic aryl,N'-pyrazolyl urea, thiourea, guanidine cyanoguanidine compounds as TrkA kinase inhibitors” (Array BioPharma Inc., priority 2012, dated 2017)
